Data: patent US11866431B2, “Bicyclic compounds” (Vivace Therapeutics, Inc., priority 2018, dated 2024)

Tested on: 8XTBD luciferase reporter (YAP reporter) in HEK293T cells
Test: YAP Reporter Assay
Type: cell-based
Details: Homo sapiens, HEK-293T; HEK293T cells stably transfected with 8XTBD luciferase reporter and pRLTK; 24-hr incubation; top concentration 3 μM; read-out: Firefly Luciferase IC50
Summary of the method: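 HEK293T cells stably carrying 8XTBD firefly luciferase and TK-renilla (3×10^3 cells/well) dosed 3-4 h after plating with compounds from 3 μM final, 1:3 dilution, 10 points, quadruplicates. After 24 h at 37° C, Dual-Glo readings gave IC50 and maximum inhibition reported separately for firefly and renilla.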

| Compound | IC50 [nM] |
| --- | --- |
| CC(=O)N1CC([C@@H](C)NC(=O)c2ccc3c(-c4ccc(C(F)(F)F)cc4)cccc3c2)C1 [Compound 199, (R)—N-(1-(1-acetylazetidin-3-yl)ethyl)-5-(4-(trifluoromethyl)phenyl)-2-naphthamide] | 100 to 1000 |
| CC(=O)N1CC([C@H](C)NC(=O)c2ccc3c(-c4ccc(C(F)(F)F)cc4)cccc3c2)C1 [Compound 200, (S)—N-(1-(1-acetylazetidin-3-yl)ethyl)-5-(4-(trifluoromethyl)phenyl)-2-naphthamide] | 100 to 1000 |
| CC(NC(=O)c1ccc2c(-c3ccc(C(F)(F)F)cc3)cccc2c1)c1nsc(C(N)=O)n1 (stereo not drawn) [Compound 201, 3-(1-(5-(4-(Trifluoromethyl)phenyl)-2-naphthamido)ethyl)-1,2,4-thiadiazole-5-carboxamide] | < 100 |
| NC(=O)/C=C/CCCNC(=O)c1ccc2c(-c3ccc(C(F)(F)F)cc3)cccc2c1 [Compound 202, N-[(E)-6-amino-6-oxo-hex-4-enyl]-5-[4-(trifluoromethyl)phenyl]naphthalene-2-carboxamide] | 100 to 1000 |
| C[C@@H](NC(=O)c1ccc2c(-c3ccc(C(F)(F)F)cc3)cccc2c1)C1CNC1 [Compound 203, (R)—N-(1-(azetidin-3-yl)ethyl)-5-(4-(trifluoromethyl)phenyl)-2-naphthamide] | < 100 |
| C[C@H](NC(=O)c1ccc2c(-c3ccc(C(F)(F)F)cc3)cccc2c1)C1CNC1 [Compound 204, (S)—N-(1-(azetidin-3-yl)ethyl)-5-(4-(trifluoromethyl)phenyl)-2-naphthamide] | 100 to 1000 |
| C[C@@H](NC(=O)c1ccc2c(-c3ccc(C(F)(F)F)cc3)cccc2c1)c1ccccc1Cl [Compound 206, (R)—N-(1-(2-chlorophenyl)ethyl)-5-(4-(trifluoromethyl)phenyl)-2-naphthamide] | < 100 |
| COCCOc1cccc(CNC(=O)c2ccc3c(-c4ccc(C(F)(F)F)cc4)cccc3c2)c1 [Compound 208, N-(3-(2-methoxyethoxy)benzyl)-5-(4-(trifluoromethyl)phenyl)-2-naphthamide] | < 100 |
| O=C(O)/C=C/CCNC(=O)c1ccc2c(-c3ccc(C(F)(F)F)cc3)cccc2c1 [Compound 209, (E)-5-[[5-[4-(trifluoromethyl)phenyl]naphthalene-2-carbonyl]amino]pent-2-enoic Acid] | 1000 to 3000 |
| COc1cc(CNC(=O)c2ccc3c(-c4ccc(C(F)(F)F)cc4)cccc3c2)ccn1 [Compound 210, N-((2-methoxypyridin-4-yl)methyl)-5-(4-(trifluoromethyl)phenyl)-2-naphthamide] | 100 to 1000 |
| O=C(NCc1ccnc(F)c1)c1ccc2c(-c3ccc(C(F)(F)F)cc3)cccc2c1 [Compound 211, N-((2-fluoropyridin-4-yl)methyl)-5-(4-(trifluoromethyl)phenyl)-2-naphthamide] | < 100 |
| COCC(C)(C)NC(=O)c1ccc2c(-c3ccc(C(F)(F)F)cc3)cccc2c1 [Compound 212, N-(1-methoxy-2-methylpropan-2-yl)-5-(4-(trifluoromethyl)phenyl)-2-naphthamide] | < 100 |
| C[C@@H](NC(=O)c1ccc2c(-c3ccc(C(F)(F)F)cc3)cccc2c1)c1cc(N)ccn1 [Compound 213, (R)—N-(1-(4-aminopyridin-2-yl)ethyl)-5-(4-(trifluoromethyl)phenyl)-2-naphthamide] | 100 to 1000 |
| C[C@H](NC(=O)c1ccc2c(-c3ccc(C(F)(F)F)cc3)cccc2c1)c1cc(N)ccn1 [Compound 214, (S)—N-(1-(4-aminopyridin-2-yl)ethyl)-5-(4-(trifluoromethyl)phenyl)-2-naphthamide] | 1000 to 3000 |
| N#Cc1cccc(CNC(=O)c2ccc3c(-c4ccc(C(F)(F)F)cc4)cccc3c2)c1 [Compound 215, N-(3-cyanobenzyl)-5-(4-(trifluoromethyl)phenyl)-2-naphthamide] | < 100 |
| N#C/C=C\CCNC(=O)c1ccc2c(-c3ccc(C(F)(F)F)cc3)cccc2c1 [Compound 216, N—[(Z)-4-cyanobut-3-enyl]-5-[4-(trifluoromethyl)phenyl]naphthalene-2-carboxamide] | 100 to 1000 |
| N#C/C=C/CCNC(=O)c1ccc2c(-c3ccc(C(F)(F)F)cc3)cccc2c1 [Compound 217, N-[(E)-4-cyanobut-3-enyl]-5-[4-(trifluoromethyl)phenyl]naphthalene-2-carboxamide] | < 100 |
| C[C@@H](NC(=O)c1ccc2c(-c3ccc(C(F)(F)F)cc3)cccc2c1)c1cccnc1N [Compound 218, (R)—N-[1-(2-amino-3-pyridyl)ethyl]-5-[4-(trifluoromethyl)phenyl]naphthalene-2-carboxamide] | < 100 |
| O=C(NCc1ncns1)c1ccc2c(-c3ccc(C(F)(F)F)cc3)cccc2c1 [Compound 220, N-((1,2,4-thiadiazol-5-yl)methyl)-5-(4-(trifluoromethyl)phenyl)-2-naphthamide] | < 100 |
| Cc1nsc(CNC(=O)c2ccc3c(-c4ccc(C(F)(F)F)cc4)cccc3c2)n1 [Compound 221, N-((3-methyl-1,2,4-thiadiazol-5-yl)methyl)-5-(4-(trifluoromethyl)phenyl)-2-naphthamide] | < 100 |

| Compound | IC50 [nM] |
| --- | --- |
| NC(=O)/C=C/CCNC(=O)c1ccc2c(-c3ccc(C(F)(F)F)cc3)cccc2c1 [Compound 222, N-[(E)-5-amino-5-oxo-pent-3-enyl]-5-[4-(trifluoromethyl)phenyl]naphthalene-2-carboxamide] | < 100 |
| C[C@@H](NC(=O)c1ccc2c(-c3ccc(C(F)(F)F)cc3)cccc2c1)c1cc(N(C)C)ccn1 [Compound 223, (R)—N-(1-(4-(dimethylamino)pyridin-2-yl)ethyl)-5-(4-(trifluoromethyl)phenyl)-2-naphthamide] | 100 to 1000 |
| C[C@H](NC(=O)c1ccc2c(-c3ccc(C(F)(F)F)cc3)cccc2c1)c1cc(N(C)C)ccn1 [Compound 224, (S)—N-(1-(4-(dimethylamino)pyridin-2-yl)ethyl)-5-(4-(trifluoromethyl)phenyl)-2-naphthamide] | 1000 to 3000 |
| CC(NC(=O)c1ccc2c(-c3ccc(C(F)(F)F)cc3)cccc2c1)c1cc(Br)ccn1 (stereo not drawn) [Compound 225, N-(1-(4-bromopyridin-2-yl)ethyl)-5-(4-(trifluoromethyl)phenyl)-2-naphthamide] | < 100 |
| N#C/C=C/CCCNC(=O)c1ccc2c(-c3ccc(C(F)(F)F)cc3)cccc2c1 [Compound 227, N-[(E)-5-cyanopent-4-enyl]-5-[4-(trifluoromethyl)phenyl]naphthalene-2-carboxamide] | < 100 |
| N#C/C=C\CCCNC(=O)c1ccc2c(-c3ccc(C(F)(F)F)cc3)cccc2c1 [Compound 228, N—[(Z)-5-cyanopent-4-enyl]-5-[4-(trifluoromethyl)phenyl]naphthalene-2-carboxamide] | < 100 |
| O=C(NCc1ccncc1)c1ccc2c(-c3ccc(C(F)(F)F)cc3)cccc2c1 [Compound 229, N-(pyridin-4-ylmethyl)-5-(4-(trifluoromethyl)phenyl)-2-naphthamide] | < 100 |
| COC(=O)/C=C/CCNC(=O)c1ccc2c(-c3ccc(C(F)(F)F)cc3)cccc2c1 [Compound 230, methyl (E)-5-[[5-[4-(trifluoromethyl)phenyl]naphthalene-2-carbonyl]amino]pent-2-enoate] | 100 to 1000 |
| N#CC(O)CCCCNC(=O)c1ccc2c(-c3ccc(C(F)(F)F)cc3)cccc2c1 (stereo not drawn) [Compound 231, N-(5-cyano-5-hydroxy-pentyl)-5-[4-(trifluoromethyl)phenyl]naphthalene-2-carboxamide] | 100 to 1000 |
| COc1cc(-c2ccc(C(F)(F)F)cc2F)c2ncc(C(=O)N[C@@H](C)c3ccccn3)cc2c1 [Compound 232, (S)-8-(2-Fluoro-4-(trifluoromethyl)phenyl)-6-methoxy-N-(1-(pyridin-2-yl)ethyl)quinoline-3-carboxamide] | < 100 |
| COc1cc(-c2ccc(C(F)(F)F)cc2F)c2ncc(C(=O)N[C@H](C)CO)cc2c1 [Compound 233, (R)-8-(2-Fluoro-4-(trifluoromethyl)phenyl)-N-(1-hydroxypropan-2-yl)-6-methoxyquinoline-3-carboxamide] | < 100 |
| COCCC(=O)Nc1cccc(CNC(=O)c2ccc3c(-c4ccc(C(F)(F)F)cc4)cccc3c2)c1 [Compound 234, N-(3-(3-methoxypropanamido)benzyl)-5-(4-(trifluoromethyl)phenyl)-2-naphthamide] | < 100 |
| Nc1cccc(CNC(=O)c2ccc3c(-c4ccc(C(F)(F)F)cc4)cccc3c2)c1 [Compound 235, N-(3-aminobenzyl)-5-(4-(trifluoromethyl)phenyl)-2-naphthamide] | < 100 |
| CC(C)(C)OC(=O)Nc1cccc(CNC(=O)c2ccc3c(-c4ccc(C(F)(F)F)cc4)cccc3c2)c1 [Compound 236, Tert-Butyl (3-((5-(4-(trifluoromethyl)phenyl)-2-naphthamido)methyl)phenyl)carbamate] | 100 to 1000 |
| CC(=O)Nc1cccc(CNC(=O)c2ccc3c(-c4ccc(C(F)(F)F)cc4)cccc3c2)c1 [Compound 237, N-(3-acetamidobenzyl)-5-(4-(trifluoromethyl)phenyl)-2-naphthamide] | < 100 |
| O=C(NCCCCCO)c1ccc2c(-c3ccc(C(F)(F)F)cc3)cccc2c1 [Compound 238, N-(5-hydroxypentyl)-5-[4-(trifluoromethyl)phenyl]naphthalene-2-carboxamide] | 100 to 1000 |
| O=C(NCc1ccccn1)c1ccc2c(-c3ccc(C(F)(F)F)cc3)cccc2c1 [Compound 239, N-(pyridin-2-ylmethyl)-5-(4-(trifluoromethyl)phenyl)-2-naphthamide] | < 100 |
| COc1cccc(CNC(=O)c2ccc3c(-c4ccc(C(F)(F)F)cc4)cccc3c2)c1 [Compound 240, N-(3-methoxybenzyl)-5-(4-(trifluoromethyl)phenyl)-2-naphthamide] | 100 to 1000 |
| O=C(NCc1ccccc1)c1ccc2c(-c3ccc(C(F)(F)F)cc3)cccc2c1 [Compound 241, N-benzyl-5-(4-(trifluoromethyl)phenyl)-2-naphthamide] | < 100 |
